Data as given in patent US20240299385A1 (ReWind Therapeutics NV, priority 2021, published 2024).

The compounds below were run against T1, human GPR17 receptor (Homo sapiens, UniProt Q13304) (assay: Calcium mobilization functional assay (Fluo-8, FLIPR TETRA) in HEK-293 hGPR17 (Gα-q assay)). Conditions: antagonism of MDL29,951 (~EC80) induced Ca2+ signal; cell line (HEK-293 hGPR17 or HEK-293 Suchi5 hGPR17) not given.
T1 construct: host or cells: HEK-293
Assay type: cell-based
Method in brief: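 Fluo-8-loaded HEK-293 hGPR17 cells (60 min dye loading, room temperature) were preincubated with compound for twenty minutes, then challenged with agonist MDL29,951 at ~EC80, 500 nM. Intracellular calcium release via Gα-q was recorded as FLIPR fluorescence for a further 2 minutes; compounds tested in duplicate.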

T1 sequence (Q13304 whole entry): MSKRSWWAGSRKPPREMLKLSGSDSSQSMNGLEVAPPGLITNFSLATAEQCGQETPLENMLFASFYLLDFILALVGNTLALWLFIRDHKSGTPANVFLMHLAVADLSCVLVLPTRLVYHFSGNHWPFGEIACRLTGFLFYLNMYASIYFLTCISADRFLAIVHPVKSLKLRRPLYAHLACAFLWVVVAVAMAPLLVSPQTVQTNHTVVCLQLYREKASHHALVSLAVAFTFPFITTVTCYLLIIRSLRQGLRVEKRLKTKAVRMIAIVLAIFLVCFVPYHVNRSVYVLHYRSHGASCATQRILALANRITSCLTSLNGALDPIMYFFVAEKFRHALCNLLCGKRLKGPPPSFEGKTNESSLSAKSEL

Row | Compound | IC50
1 | O=S(=O)(Nc1cc(F)c(Br)cc1F)c1c[nH]c(-c2ccccc2Cl)c1 [Cpd 533, N-(4-bromo-2,5-difluorophenyl)-5-(2-chlorophenyl)-1H-pyrrole-3-sulfonamide] | 500 to 5000 nM
2 | O=S(=O)(Nc1cc(F)c(Br)cc1F)c1c[nH]c(-c2cccc3cccnc23)c1 [Cpd 534, N-(4-bromo-2,5-difluorophenyl)-5-quinolin-8-yl-1H-pyrrole-3-sulfonamide] | 500 to 5000 nM
3 | N#Cc1ccc(NS(=O)(=O)c2c[nH]cc2Cc2ccc(F)c(F)c2)c(F)c1 [Cpd 535, N-(4-cyano-2-fluorophenyl)-4-[(3,4-difluorophenyl)methyl]-1H-pyrrole-3-sulfonamide] | < 500 nM
4 | O=S(=O)(Nc1cc(F)c(CO)cc1F)c1c[nH]c(-c2ccccc2)c1 [Cpd 537, N-[2,5-difluoro-4-(hydroxymethyl)phenyl]-5-phenyl-1H-pyrrole-3-sulfonamide] | 500 to 5000 nM
5 | Cc1ncc(-c2cc(S(=O)(=O)Nc3cc(F)c(C(F)(F)F)cc3F)c[nH]2)s1 [Cpd 538, N-[2,5-difluoro-4-(trifluoromethyl)phenyl]-5-(2-methyl-1,3-thiazol-5-yl)-1H-pyrrole-3-sulfonamide] | 500 to 5000 nM
6 | Cn1cc2cccc(-c3cc(S(=O)(=O)Nc4cc(F)c(C(F)(F)F)cc4F)c[nH]3)c2n1 [Cpd 540, N-[2,5-difluoro-4-(trifluoromethyl)phenyl]-5-(2-methylindazol-7-yl)-1H-pyrrole-3-sulfonamide] | 500 to 5000 nM
7 | N#Cc1ccc(NS(=O)(=O)c2c[nH]c(-c3cccc(F)c3OC3CC3)c2)c(F)c1 [Cpd 542, N-(4-cyano-2-fluorophenyl)-5-(2-cyclopropyloxy-3-fluorophenyl)-1H-pyrrole-3-sulfonamide] | < 500 nM
8 | COc1cc(F)cc(Cc2c[nH]cc2S(=O)(=O)Nc2ccc(C#N)cc2F)c1 [Cpd 547, N-(4-cyano-2-fluorophenyl)-4-[(3-fluoro-5-methoxyphenyl)methyl]-1H-pyrrole-3-sulfonamide] | 500 to 5000 nM
9 | N#Cc1cc(F)c(NS(=O)(=O)c2c[nH]c(C3CCC3)c2)cc1F [Cpd 549, N-(4-cyano-2,5-difluorophenyl)-5-cyclobutyl-1H-pyrrole-3-sulfonamide] | < 500 nM
10 | O=S(=O)(Nc1cc(F)c(OC(F)F)cc1F)c1c[nH]c(C2CCC2)c1 [Cpd 550, 5-cyclobutyl-N-[4-(difluoromethoxy)-2,5-difluorophenyl]-1H-pyrrole-3-sulfonamide] | < 500 nM
11 | O=S(=O)(Nc1cc(F)c(OC(F)F)cc1F)c1c[nH]c(-c2cccc3cccnc23)c1 [Cpd 552, N-[4-(difluoromethoxy)-2,5-difluorophenyl]-5-quinolin-8-yl-1H-pyrrole-3-sulfonamide] | 500 to 5000 nM
12 | O=S(=O)(Nc1cc(F)c(OC(F)F)cc1F)c1c[nH]c(-c2cccc3ccoc23)c1 [Cpd 553, 5-(1-benzofuran-7-yl)-N-[4-(difluoromethoxy)-2,5-difluorophenyl]-1H-pyrrole-3-sulfonamide] | 500 to 5000 nM
13 | N#Cc1ccc(F)c(-c2cc(S(=O)(=O)Nc3cc(F)c(C(F)(F)F)cc3F)c[nH]2)c1 [Cpd 554, 5-(5-cyano-2-fluorophenyl)-N-[2,5-difluoro-4-(trifluoromethyl)phenyl]-1H-pyrrole-3-sulfonamide] | < 500 nM
14 | O=S(=O)(Nc1cc(F)c(C(F)(F)F)cc1F)c1c[nH]c(-c2cnccc2Cl)c1 [Cpd 556, 5-(4-chloropyridin-3-yl)-N-[2,5-difluoro-4-(trifluoromethyl)phenyl]-1H-pyrrole-3-sulfonamide] | < 500 nM
15 | O=S(=O)(Nc1cc(F)c(C(F)(F)F)cc1F)c1c[nH]c(-c2c(F)ccnc2F)c1 [Cpd 557, 5-(2,4-difluoropyridin-3-yl)-N-[2,5-difluoro-4-(trifluoromethyl)phenyl]-1H-pyrrole-3-sulfonamide] | < 500 nM
16 | O=S(=O)(Nc1cc(F)c(C(F)(F)F)cc1F)c1c[nH]cc1Cc1cccc(OC(F)F)c1 [Cpd 558, 4-[[3-(difluoromethoxy)phenyl]methyl]-N-[2,5-difluoro-4-(trifluoromethyl)phenyl]-1H-pyrrole-3-sulfonamide] | 500 to 5000 nM
17 | COCc1cccnc1-c1cc(S(=O)(=O)Nc2cc(F)c(C(F)(F)F)cc2F)c[nH]1 [Cpd 560, N-[2,5-difluoro-4-(trifluoromethyl)phenyl]-5-[3-(methoxymethyl)pyridin-2-yl]-1H-pyrrole-3-sulfonamide] | 5000 to 50000 nM
18 | N#Cc1ccc(NS(=O)(=O)c2c[nH]c(-c3csc(Cl)c3)c2)c(F)c1 [Cpd 562, 5-(5-chlorothiophen-3-yl)-N-(4-cyano-2-fluorophenyl)-1H-pyrrole-3-sulfonamide] | < 500 nM
19 | N#Cc1ccc(NS(=O)(=O)c2c[nH]c(-c3cc(Cl)cs3)c2)c(F)c1 [Cpd 563, 5-(4-chlorothiophen-2-yl)-N-(4-cyano-2-fluorophenyl)-1H-pyrrole-3-sulfonamide] | < 500 nM
20 | N#Cc1cccc(-c2cc(S(=O)(=O)Nc3cc(F)c(C(F)(F)F)cc3F)c[nH]2)c1F [Cpd 564, 5-(3-cyano-2-fluorophenyl)-N-[2,5-difluoro-4-(trifluoromethyl)phenyl]-1H-pyrrole-3-sulfonamide] | 500 to 5000 nM
21 | O=S(=O)(Nc1cc(F)c(C(F)(F)F)cc1F)c1c[nH]c(-c2cccc3ccnn23)c1 [Cpd 566, N-[2,5-difluoro-4-(trifluoromethyl)phenyl]-5-pyrazolo[1,5-a]pyridin-7-yl-1H-pyrrole-3-sulfonamide] | 500 to 5000 nM
22 | O=S(=O)(Nc1cc(F)c(C(F)(F)F)cc1F)c1c[nH]c(-c2ccc3cccnn23)c1 [Cpd 567, N-[2,5-difluoro-4-(trifluoromethyl)phenyl]-5-pyrrolo[1,2-b]pyridazin-7-yl-1H-pyrrole-3-sulfonamide] | < 500 nM
23 | N#Cc1cc(F)c(NS(=O)(=O)c2c[nH]cc2Cc2cccc(Cl)c2)cc1F [Cpd 569, 4-[(3-chlorophenyl)methyl]-N-(4-cyano-2,5-difluorophenyl)-1H-pyrrole-3-sulfonamide] | < 500 nM

Results, then the compound that gave them:

Row | IC50 | Compound
24 | < 500 nM | COc1cc(Cc2c[nH]cc2S(=O)(=O)Nc2ccc(C#N)cc2F)ccc1F [Cpd 536, N-(4-cyano-2-fluorophenyl)-4-[(4-fluoro-3-methoxyphenyl)methyl]-1H-pyrrole-3-sulfonamide]
25 | < 500 nM | COc1sccc1-c1cc(S(=O)(=O)Nc2cc(F)c(C(F)(F)F)cc2F)c[nH]1 [Cpd 539, N-[2,5-difluoro-4-(trifluoromethyl)phenyl]-5-(2-methoxythiophen-3-yl)-1H-pyrrole-3-sulfonamide]
26 | < 500 nM | N#Cc1cccc(-c2cc(S(=O)(=O)Nc3cc(F)c(Br)cc3F)c[nH]2)c1 [Cpd 541, N-(4-bromo-2,5-difluorophenyl)-5-(3-cyanophenyl)-1H-pyrrole-3-sulfonamide]
27 | < 500 nM | N#Cc1ccc(NS(=O)(=O)c2c[nH]c(-c3ncc(F)cc3F)c2)c(F)c1 [Cpd 543, N-(4-cyano-2-fluorophenyl)-5-(3,5-difluoropyridin-2-yl)-1H-pyrrole-3-sulfonamide]
28 | < 500 nM | COc1c(F)cccc1-c1cc(S(=O)(=O)Nc2cc(F)c(Br)cc2F)c[nH]1 [Cpd 544, N-(4-bromo-2,5-difluorophenyl)-5-(3-fluoro-2-methoxyphenyl)-1H-pyrrole-3-sulfonamide]
29 | < 500 nM | N#Cc1ccc(NS(=O)(=O)c2c[nH]cc2Cc2ccc(F)c(Cl)c2)c(F)c1 [Cpd 545, 4-[(3-chloro-4-fluorophenyl)methyl]-N-(4-cyano-2-fluorophenyl)-1H-pyrrole-3-sulfonamide]
30 | < 500 nM | N#Cc1ccc(NS(=O)(=O)c2c[nH]cc2Cc2cc(F)cc(F)c2)c(F)c1 [Cpd 546, N-(4-cyano-2-fluorophenyl)-4-[(3,5-difluorophenyl)methyl]-1H-pyrrole-3-sulfonamide]
31 | < 500 nM | N#Cc1cc(F)c(NS(=O)(=O)c2c[nH]cc2Cc2cccc(OC(F)F)c2)cc1F [Cpd 548, N-(4-cyano-2,5-difluorophenyl)-4-[[3-(difluoromethoxy)phenyl]methyl]-1H-pyrrole-3-sulfonamide]
32 | < 500 nM | O=S(=O)(Nc1cc(F)c(Br)cc1F)c1c[nH]c(C2CCC2)c1 [Cpd 551, N-(4-bromo-2,5-difluorophenyl)-5-cyclobutyl-1H-pyrrole-3-sulfonamide]
33 | < 500 nM | Cn1cccc(-c2cc(S(=O)(=O)Nc3cc(F)c(C(F)(F)F)cc3F)c[nH]2)c1=O [Cpd 555, N-[2,5-difluoro-4-(trifluoromethyl)phenyl]-5-(1-methyl-2-oxopyridin-3-yl)-1H-pyrrole-3-sulfonamide]
34 | < 500 nM | O=S(=O)(Nc1cc(F)c(C(F)(F)F)cc1F)c1c[nH]c(-c2cnsc2)c1 [Cpd 559, N-[2,5-difluoro-4-(trifluoromethyl)phenyl]-5-(1,2-thiazol-4-yl)-1H-pyrrole-3-sulfonamide]
35 | 500 to 5000 nM | O=S(=O)(Nc1cc(F)c(Br)cc1F)c1c[nH]c(-c2cccc3ccoc23)c1 [Cpd 561, 5-(1-benzofuran-7-yl)-N-(4-bromo-2,5-difluorophenyl)-1H-pyrrole-3-sulfonamide]
36 | 500 to 5000 nM | O=S(=O)(Nc1cc(F)c(C(F)(F)F)cc1F)c1c[nH]c(-c2cccn3ccnc23)c1 [Cpd 565, N-[2,5-difluoro-4-(trifluoromethyl)phenyl]-5-imidazo[1,2-a]pyridin-8-yl-1H-pyrrole-3-sulfonamide]
37 | 500 to 5000 nM | O=S(=O)(Nc1cc(F)c(C(F)(F)F)cc1F)c1c[nH]cc1Cc1cccc(Cl)c1 [Cpd 568, 4-[(3-chlorophenyl)methyl]-N-[2,5-difluoro-4-(trifluoromethyl)phenyl]-1H-pyrrole-3-sulfonamide]
38 | < 500 nM | N#Cc1ccc(NS(=O)(=O)c2c[nH]c(-c3ccc(F)s3)c2)c(F)c1 [Cpd 570, N-(4-cyano-2-fluorophenyl)-5-(5-fluorothiophen-2-yl)-1H-pyrrole-3-sulfonamide]
39 | 5000 to 50000 nM | CC1(C)CC(c2cc(S(=O)(=O)Nc3cc(F)c(C(F)(F)F)cc3F)c[nH]2)C1 [Cpd 571, N-[2,5-difluoro-4-(trifluoromethyl)phenyl]-5-(3,3-dimethylcyclobutyl)-1H-pyrrole-3-sulfonamide]
